Data set [1] is described as follows: refractive index (Na D-line) (dimensionless). The following applies: 293.15 K; 100 kPa; Liquid; Standard Abbe refractometry.
The conditions of data set [2]: 293.15 K; 100 kPa; Liquid; Vibrating tube method.

Numbers after ± are expanded uncertainties.

For the compound `O` [water], the refractive index in data set [1] is listed as 1.33299 ± 0.001.
As to `CC12CCC(CC1)C(C)(C)O2` [1,3,3-trimethyl-2-oxabicyclo[2.2.2]octane], the refractive index in data set [1] is 1.45756 ± 0.0011. Moreover, the mass density in data set [2] is reported as 924.84 ± 2 kg/m3.

One may read the refractive index as a measure of how strongly the sample bends light. A word on the mass density: it is mass per unit of volume.

These data come from the NIST ThermoML archive (doi:10.1016/j.jct.2016.12.018).
